Data as given in patent US11603343B2, “Inhibition of DYRK1A kinase” (Ankh Life Sciences Limited, priority 2020, dated 2023).

Molecular target: T1, human DYRK1A (Homo sapiens, UniProt Q13627)
T1 construct: host or cells: E. coli BL21(DE3)
Assay: ELISA DYRK1A non-radioactive phosphorylation assay (HT-PRD substrate)
Assay type: biochemical
Description: In order to determine the effectiveness of the DYRK1A inhibitors of the invention, a series of ELISA assays were performed, along with Western Blot assays.
The ELISA assays were devised as a modified form of the assay described in Liu et al. “An ELISA DYRK1A non-radioactive assay suitable for the characterization of inhibitors,” F1000Research 2017, 6:42 (doi: 10.12688/f1000research.10582.1), incorporated by reference herein in its entirety.
Specifically, human DYRK1A (Addgene #38913) and HT-PRD (Addgene #87755) plasmids were obtained from Addgene and were expressed and purified using Ni affinity chromatography, as explained below. Proteins were quantified by the conventional Bradford method and stored at −80° C. until used.
HT-PRD was diluted in dilution buffer (25 mM Tris-HCl, pH 7.4 and 100 mM NaCl) to 4 ng/μL and used to coat a 96-well plate (BD Falcon #353072) with 100 μL per well at 4° C. overnight.
The wells were next washed with dilution buffer 3 times to remove unbound materials, and then the wells were blocked with 150 μL blocking buffer (2% BSA, 1×PBS, and 0.25% Tween 20) at room temperature for 60 minutes with shaking on a shaker.
After the 60-minute shaking period, the wells were washed thoroughly with dilution buffer 3 times to prepare for the phosphorylation in the next step.
Duplicate DYRK1A phosphorylation reactions were performed in the wells with 100 μL reaction mixtures each containing 25 mM HEPES, pH 7.4, 100 mM NaCl, 5 mM MgCl2, 100 μM ATP, 1% DMSO, and 200 ng/mL DYRK1A. Separate reaction mixtures included a no-inhibitor DMSO control, harmine inhibitor, and different concentrations of the inhibitors of the present invention. The plate was left on a temperature-controlled shaker for 30 minutes at 30° C.
The phosphorylation reactions were terminated after the 30-minute shaking, by the addition of 20 mM EDTA. The wells were then washed with PBST (0.02% Tween 20).
HT-PRD phosphorylation was determined by the sandwich antibody staining protocol. […] The extent of the phosphorylation reactions was monitored at λ=405 nm. […]

[1] = tested at 5 μg/mL, significantly greater than DMSO and any of the other fractions at the same level of use (FIG. 1)

| Compound | inhibition of DYRK1A [1] | inhibition of DYRK1A (reference inhibitor, text says 100 μg/mL, sample table lists harmine 2 μM and 10 μM (FIG. 1)) |
| --- | --- | --- |
| Cc1c(O)cc(C(C)C)c(O)c1Cc1cc(O)c(C(C)C)cc1O [compound XVIII] | very pronounced inhibition of DYRK1A |  |
| Cc1c(O)cc(C(C)C)c(O)c1CC1=CC(=O)C(C(C)C)=CC1=O [compound XVII] | very pronounced inhibition of DYRK1A |  |
| COc1ccc2c3c([nH]c2c1)C(C)=NCC3 [harmaline, reference compound] |  | showed inhibition of DYRK1A |
